According to the supplement of paper PMC10307832:

How the values were obtained:
Assay in all cases: relative viability (nuclei count vs DMSO), 5 days (fraction); higher = more cells survive
[1] = test system: 201T
Outline: (§1)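 Lung cancer cell lines in 1536-well plates got either a single drug or a fixed anchor-drug dose together with five library-drug doses (not always all listed) in √10 steps, by pin tool, on the day after seeding. Nuclei were counted after 5 days, and relative viability is the treated-to-vehicle ratio of nuclei counts. Values are medians of duplicate plates.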

[2] = test system: BEN
Outline: as §1

[3] = test system: CAL-12T
Outline: as §1

[4] = test system: COR-L 105
Outline: as §1

[5] = test system: COR-L23
Outline: as §1

[6] = test system: EKVX
Outline: as §1

[7] = test system: HARA
Outline: as §1

[8] = test system: HCC-366
Outline: as §1

[9] = test system: LK-2
Outline: as §1

[10] = test system: LU99A
Outline: as §1

[11] = test system: NCI-H1437
Outline: as §1

[12] = test system: NCI-H1650
Outline: as §1

[13] = test system: NCI-H1666
Outline: as §1

[14] = test system: NCI-H2009
Outline: as §1

[15] = test system: NCI-H2170
Outline: as §1

[16] = test system: NCI-H3122
Outline: as §1

[17] = test system: NCI-H441
Outline: as §1

[18] = test system: NCI-H661
Outline: as §1

[19] = test system: NCI-H838
Outline: as §1

[20] = test system: PC-14
Outline: as §1

[21] = test system: SW 900
Outline: as §1

O=C(O)c1ccc(-c2c[nH]c3ncc(-c4ccccc4)cc23)cc1C1CCCC1 + Nc1nc2[nH]cc(CCc3ccc(C(=O)N[C@@H](CCC(=O)O)C(=O)O)cc3)c2c(=O)[nH]1 [Pemetrexed] (partner 0.2 µM)
relative viability ([1]; first compound 0.04 µM): 0.342
relative viability ([1]; first compound 0.1265 µM): 0.326
relative viability ([1]; first compound 0.4 µM): 0.357
relative viability ([1]; first compound 1.265 µM): 0.343
relative viability ([2]; first compound 0.04 µM): 0.598
relative viability ([2]; first compound 0.1265 µM): 0.862
relative viability ([2]; first compound 0.4 µM): 0.792
relative viability ([2]; first compound 1.265 µM): 0.788
relative viability ([3]; first compound 0.04 µM): 1.15
relative viability ([3]; first compound 0.1265 µM): 1.04
relative viability ([3]; first compound 0.4 µM): 1.1
relative viability ([3]; first compound 1.265 µM): 1.09
relative viability ([4]; first compound 0.04 µM): 1.06
relative viability ([4]; first compound 0.1265 µM): 1.19
relative viability ([4]; first compound 0.4 µM): 1.19
relative viability ([4]; first compound 1.265 µM): 1.08
relative viability ([5]; first compound 0.04 µM): 0.191
relative viability ([5]; first compound 0.1265 µM): 0.196
relative viability ([5]; first compound 0.4 µM): 0.194
relative viability ([5]; first compound 1.265 µM): 0.184
relative viability ([6]; first compound 0.04 µM): 0.397
relative viability ([6]; first compound 0.1265 µM): 0.576
relative viability ([6]; first compound 0.4 µM): 0.376
relative viability ([6]; first compound 1.265 µM): 0.409
relative viability ([7]; first compound 0.04 µM): 0.23
relative viability ([7]; first compound 0.1265 µM): 0.237
relative viability ([7]; first compound 0.4 µM): 0.222
relative viability ([7]; first compound 1.265 µM): 0.252
relative viability ([8]; first compound 0.04 µM): 0.178
relative viability ([8]; first compound 0.1265 µM): 0.203
relative viability ([8]; first compound 0.4 µM): 0.149
relative viability ([8]; first compound 1.265 µM): 0.187
relative viability ([9]; first compound 0.04 µM): 0.172
relative viability ([9]; first compound 0.1265 µM): 0.344
relative viability ([9]; first compound 0.4 µM): 0.317
relative viability ([9]; first compound 1.265 µM): 0.276
relative viability ([10]; first compound 0.04 µM): 0.166
relative viability ([10]; first compound 0.1265 µM): 0.192
relative viability ([10]; first compound 0.4 µM): 0.187
relative viability ([10]; first compound 1.265 µM): 0.202
relative viability ([11]; first compound 0.04 µM): 0.338
relative viability ([11]; first compound 0.1265 µM): 0.33
relative viability ([11]; first compound 0.4 µM): 0.311
relative viability ([11]; first compound 1.265 µM): 0.295
relative viability ([12]; first compound 0.04 µM): 0.352
relative viability ([12]; first compound 0.1265 µM): 0.466
relative viability ([12]; first compound 0.4 µM): 0.383
relative viability ([12]; first compound 1.265 µM): 0.33
relative viability ([13]; first compound 0.04 µM): 0.753
relative viability ([13]; first compound 0.1265 µM): 0.917
relative viability ([13]; first compound 0.4 µM): 0.879
relative viability ([13]; first compound 1.265 µM): 0.809
relative viability ([14]; first compound 0.04 µM): 1.03
relative viability ([14]; first compound 0.1265 µM): 1.11
relative viability ([14]; first compound 0.4 µM): 1.03
relative viability ([14]; first compound 1.265 µM): 0.946
relative viability ([15]; first compound 0.04 µM): 0.265
relative viability ([15]; first compound 0.1265 µM): 0.263
relative viability ([15]; first compound 0.4 µM): 0.247
relative viability ([15]; first compound 1.265 µM): 0.282
relative viability ([16]; first compound 0.04 µM): 0.204
relative viability ([16]; first compound 0.1265 µM): 0.202
relative viability ([16]; first compound 0.4 µM): 0.217
relative viability ([16]; first compound 1.265 µM): 0.21
relative viability ([17]; first compound 0.04 µM): 0.33
relative viability ([17]; first compound 0.1265 µM): 0.285
relative viability ([17]; first compound 0.4 µM): 0.256
relative viability ([17]; first compound 1.265 µM): 0.235
relative viability ([18]; first compound 0.04 µM): 0.881
relative viability ([18]; first compound 0.1265 µM): 0.918
relative viability ([18]; first compound 0.4 µM): 0.92
relative viability ([18]; first compound 1.265 µM): 0.892
relative viability ([19]; first compound 0.04 µM): 0.25
relative viability ([19]; first compound 0.1265 µM): 0.265
relative viability ([19]; first compound 0.4 µM): 0.253
relative viability ([19]; first compound 1.265 µM): 0.227
relative viability ([20]; first compound 0.04 µM): 0.135
relative viability ([20]; first compound 0.1265 µM): 0.143
relative viability ([20]; first compound 0.4 µM): 0.145
relative viability ([20]; first compound 1.265 µM): 0.125
relative viability ([21]; first compound 0.04 µM): 0.476
relative viability ([21]; first compound 0.1265 µM): 0.471
relative viability ([21]; first compound 0.4 µM): 0.451
relative viability ([21]; first compound 1.265 µM): 0.473

NC(=O)Nc1cc(-c2cccc(F)c2)sc1C(=O)N[C@H]1CCCNC1 [AZD7762] + Nc1nc2[nH]cc(CCc3ccc(C(=O)N[C@@H](CCC(=O)O)C(=O)O)cc3)c2c(=O)[nH]1 [Pemetrexed] (partner 0.2 µM)
relative viability ([1]; first compound 0.01 µM): 0.34
relative viability ([1]; first compound 0.03162 µM): 0.293
relative viability ([1]; first compound 0.1 µM): 0.307
relative viability ([1]; first compound 0.3162 µM): 0.284
relative viability ([1]; first compound 1 µM): 0.296
relative viability ([2]; first compound 0.01 µM): 0.804
relative viability ([2]; first compound 0.03162 µM): 0.902
relative viability ([2]; first compound 0.1 µM): 0.757
relative viability ([2]; first compound 0.3162 µM): 0.809
relative viability ([2]; first compound 1 µM): 0.606
relative viability ([3]; first compound 0.01 µM): 1.16
relative viability ([3]; first compound 0.03162 µM): 0.981
relative viability ([3]; first compound 0.1 µM): 1.09
relative viability ([3]; first compound 0.3162 µM): 0.612
relative viability ([3]; first compound 1 µM): 0.226
relative viability ([4]; first compound 0.01 µM): 0.961
relative viability ([4]; first compound 0.03162 µM): 1.11
relative viability ([4]; first compound 0.1 µM): 0.913
relative viability ([4]; first compound 0.3162 µM): 0.87
relative viability ([4]; first compound 1 µM): 0.579
relative viability ([5]; first compound 0.01 µM): 0.191
relative viability ([5]; first compound 0.03162 µM): 0.185
relative viability ([5]; first compound 0.1 µM): 0.181
relative viability ([5]; first compound 0.3162 µM): 0.168
relative viability ([5]; first compound 1 µM): 0.131
relative viability ([6]; first compound 0.01 µM): 0.394
relative viability ([6]; first compound 0.03162 µM): 0.346
relative viability ([6]; first compound 0.1 µM): 0.248
relative viability ([6]; first compound 0.3162 µM): 0.208
relative viability ([6]; first compound 1 µM): 0.152
relative viability ([7]; first compound 0.01 µM): 0.23
relative viability ([7]; first compound 0.03162 µM): 0.25
relative viability ([7]; first compound 0.1 µM): 0.198
relative viability ([7]; first compound 0.3162 µM): 0.16
relative viability ([7]; first compound 1 µM): 0.164
relative viability ([8]; first compound 0.01 µM): 0.195
relative viability ([8]; first compound 0.03162 µM): 0.11
relative viability ([8]; first compound 0.1 µM): 0.0981
relative viability ([8]; first compound 0.3162 µM): 0.0668
relative viability ([8]; first compound 1 µM): 0.0716
relative viability ([9]; first compound 0.01 µM): 0.316
relative viability ([9]; first compound 0.03162 µM): 0.358
relative viability ([9]; first compound 0.1 µM): 0.274
relative viability ([9]; first compound 0.3162 µM): 0.214
relative viability ([9]; first compound 1 µM): 0.169
relative viability ([10]; first compound 0.01 µM): 0.204
relative viability ([10]; first compound 0.03162 µM): 0.165
relative viability ([10]; first compound 0.1 µM): 0.142
relative viability ([10]; first compound 0.3162 µM): 0.151
relative viability ([10]; first compound 1 µM): 0.109
relative viability ([11]; first compound 0.01 µM): 0.298
relative viability ([11]; first compound 0.03162 µM): 0.261
relative viability ([11]; first compound 0.1 µM): 0.229
relative viability ([11]; first compound 0.3162 µM): 0.206
relative viability ([11]; first compound 1 µM): 0.172
relative viability ([12]; first compound 0.01 µM): 0.333
relative viability ([12]; first compound 0.03162 µM): 0.331
relative viability ([12]; first compound 0.1 µM): 0.296
relative viability ([12]; first compound 0.3162 µM): 0.252
relative viability ([12]; first compound 1 µM): 0.19
relative viability ([13]; first compound 0.01 µM): 0.851
relative viability ([13]; first compound 0.03162 µM): 0.838
relative viability ([13]; first compound 0.1 µM): 0.739
relative viability ([13]; first compound 0.3162 µM): 0.594
relative viability ([13]; first compound 1 µM): 0.719
relative viability ([14]; first compound 0.01 µM): 1
relative viability ([14]; first compound 0.03162 µM): 1.02
relative viability ([14]; first compound 0.1 µM): 1.03
relative viability ([14]; first compound 0.3162 µM): 0.888
relative viability ([14]; first compound 1 µM): 0.783
relative viability ([15]; first compound 0.01 µM): 0.272
relative viability ([15]; first compound 0.03162 µM): 0.264
relative viability ([15]; first compound 0.1 µM): 0.285
relative viability ([15]; first compound 0.3162 µM): 0.236
relative viability ([15]; first compound 1 µM): 0.21
relative viability ([16]; first compound 0.01 µM): 0.19
relative viability ([16]; first compound 0.03162 µM): 0.188
relative viability ([16]; first compound 0.1 µM): 0.167
relative viability ([16]; first compound 0.3162 µM): 0.16
relative viability ([16]; first compound 1 µM): 0.139
relative viability ([17]; first compound 0.01 µM): 0.267
relative viability ([17]; first compound 0.03162 µM): 0.288
relative viability ([17]; first compound 0.1 µM): 0.294
relative viability ([17]; first compound 0.3162 µM): 0.275
relative viability ([17]; first compound 1 µM): 0.271
relative viability ([18]; first compound 0.01 µM): 0.935
relative viability ([18]; first compound 0.03162 µM): 0.739
relative viability ([18]; first compound 0.1 µM): 0.597
relative viability ([18]; first compound 0.3162 µM): 0.49
relative viability ([18]; first compound 1 µM): 0.426
relative viability ([19]; first compound 0.01 µM): 0.25
relative viability ([19]; first compound 0.03162 µM): 0.192
relative viability ([19]; first compound 0.1 µM): 0.177
relative viability ([19]; first compound 0.3162 µM): 0.177
relative viability ([19]; first compound 1 µM): 0.167
relative viability ([20]; first compound 0.01 µM): 0.133
relative viability ([20]; first compound 0.03162 µM): 0.0943
relative viability ([20]; first compound 0.1 µM): 0.0891
relative viability ([20]; first compound 0.3162 µM): 0.0706
relative viability ([20]; first compound 1 µM): 0.0517
relative viability ([21]; first compound 0.01 µM): 0.533
relative viability ([21]; first compound 0.03162 µM): 0.459
relative viability ([21]; first compound 0.1 µM): 0.452
relative viability ([21]; first compound 0.3162 µM): 0.475
relative viability ([21]; first compound 1 µM): 0.374
